Data on 1 compound can be found in patent US20230035688A1, “METHOD FOR TREATING GASTRIC CANCER BY BLOCKING CCL28 CHEMOTACTIC PATHWAY” (SHANGHAI JIAO TONG UNIVERSITY, priority 2019, published 2023).

The subject of one assay is CCL28 promoter. Put plainly: CCL28 promoter luciferase reporter gene activity with β-catenin overexpression. Type of assay: cell-based, human. The conditions noted are these: FIG. 2D. From the text:
(§1) Wnt/β-catenin reporter plasmid M50 Super 8X TOPFlash (Addgene plasmid #12456) and mutant control M51 Super 8X FOPFlash (Addgene plasmid #12457) are gifts from Randall Moon. The promoter of the human CCL28 gene (2.8 kb, −2576/+205 relative to the transcriptional start site) was cloned into the firefly luciferase reporter gene construct pGL4. Mutations of potential TCF/LEF binding sites on the CCL28 promoter were introduced using the Hieff Mut™ Multisite Directed Mutagenesis Kit (Yeasen, Shanghai) to produce a mutant CCL28 promoter report construct (pGL4-CCL28.mut). The plasmids were transfected using a jetPRIME transfection reagent (Polybus Transfection). Transfection efficiency was standardized by co-transfection with a pRL-CMV reporter gene containing the Ranilla Luciferase gene. Firefly and Ranilla luciferase activities were measured using a Dual-Glo luciferase assay system (Promega).
(§2) In this Example, the correlation between CCL28 and β-catenin signaling pathway structure is analyzed in combination with bioinformatics, and then the relationship between the two is verified in the cell model. […] After using β-catenin/TCF, the transcriptional activity of CCL28 promoter was detected after shRNA knockdown of TCF/LEF transcription factor family members or overexpression of TCF/LEF members.
In general terms: In a reporter assay the amount or activity of a reporter protein is the signal.

For assay [1], the system named is Wnt pathway reporter gene TOPflash. The assay can be described thus: Wnt pathway reporter gene TOPflash luciferase activity with β-catenin overexpression. The class given is cell-based, human. The conditions noted are these: FIG. 2D.
Description: as §1, §2

The next assay has as its system CCL28 protein. The assay can be described thus: CCL28 protein expression in stomach of H. felis/MNU in situ gastric cancer mice (Western blotting, ELISA). The conditions noted are these: intraperitoneal injection; Western blotting (FIG. 3A) and ELISA (FIG. 3B). Type of assay: in vivo, mouse. From the text:
The proteins in gastric cancer cell line and mouse gastric tissue were lysed with RIPA lysate (Thermo Scientific) added with protease inhibitor (Roche), and the protein concentration was detected using BCA Protein Assay Reagent (Thermo Scientific). The detected proteins were as follows: β-catenin (Abcam), CCL28 (R & D Systems), active β-catenin (Merck), GAPDH (Abcam) and β-tubulin (Abcam).
In order to establish gastric cancer mouse mode induced by Helicobacter felis (H. felis) and N-Methyl-N-nitrosourea (MNU), 8-week-old wild-type mice were fed by gavage with H. felis strain (ATCC 49179) three times a week, followed by given drinking water containing 240 ppm MNU every other week for a total of 12 weeks.
In general terms: In western blotting, separated proteins are transferred to a membrane and probed.

The next assay deals with colon tumor cell lines. The conditions noted are these: cited from earlier work.

Each structure is given as a SMILES string.

With `Cc1cc(/C=C2\SC(=O)N(c3ccccc3)C2=O)c(C)n1-c1cccnc1` [iCRT14], the “up-regulation effect of β-catenin on CCL28 promoter activity” value with CCL28 promoter is “reduces the up-regulation effect of β-catenin on CCL28 promoter activity”. The “activity of Wnt pathway reporter gene TOPflash” value in assay [1] is “reduced the activity of both reporter genes”. For the same compound, the “expression of CCL28 protein in the stomach” value in the assay with CCL28 protein is recorded as “significantly reduces the expression of CCL28 protein in the stomach”. The cell cycle arrest entry with colon tumor cell lines is recorded as “G0/G1 arrest”.
